Measurements reported in patent publication US4925835A, “Aziridinyl putrescine containing compositions and their uses in treating prostate cancer” (priority 1987, dated 1990).
Read-outs that look alike come from different tables or passages of the source.

What was measured:
[1] = test system: PC-3 human prostatic carcinoma cell line; test: cells; assay type: cell-based; settings: for Cell number as a percentage of the control mean cell number / Cell no.: 1 μM AZP; for Cell no.: mean ± SE; for activity at 1 µM / EC50: Homo sapiens, Prostatic carcinoma cell; for activity at 1 µM: 192 h
Experimental: FIG. 3. Effect of AZP on the growth of PC-3 cells with or without DFMO pretreatment. PC-3 cells (3×10^4) were plated in 60-mm^2 Petri dish in RPMI 1640-10% FCS and allowed to attach overnight. The following day the medium was aspirated and replaced with RPMI 1640, 10% FCS, 100 μM aminoguanidine with or without 1 mm DFMO. Forty-eight h later the medium was aspirated, the dishes were rinsed once with HBSS, and the cells were incubated with RPMI 1640-10% FCS-100 μM aminoguanidine with or without 25 μM AZP for 1 h. Following the 1-h incubation the medium was aspirated, the plates were rinsed twice with HBSS, and the incubation was continued with fresh RPMI 1640-10% FCS-100 μM aminoguanidine. At the indicated times following initial plating the cells were lifted from the plate by trypsinization and were examined for their ability to exclude trypan blue. Total cell counts were obtained with the aid of a hemocytometer, and the completeness of the removal of the cells from the dish was verified by the examination of each dish with the inverted microscope. , control; Δ, DFMO; .circle., AZP; .quadrature., DFMO+AZP. Points, means; bars, SE.
FIG. 4. Dose-effect relationship of AZP on the growth on PC-3 prostatic cancer cells. PC-3 cells (3×10^4) were plated in RPMI 1640-10% FCS in 60-mm^2 Petri dishes and allowed to attach overnight. The following day the medium was aspirated and replaced with RPMI 1640-10% FCS-100 μM aminoguanidine with or without 1 mm DFMO. Forty-eight h later the medium was aspirated, and the cells were rinsed once with HBSS and replaced with RPMI 1640-10% FCS-100 μM aminoguanidine with or without the indicated μM concentrations of AZP. After a 1-h incubation the medium was aspirated, the cells were rinsed twice with HBSS, and the incubation was continued with fresh RPMI 1640-10% FCS-100 μM aminoguanidine. Eight days following plating the cells were lifted from the plates by trypsinization and were counted with the aid of a hemocytometer and expressed as a percentage of control (100% without DFMO, 212±31×10^4; 100% with DFMO pretreatment, 219±25× 10^4 cells, respectively). , DFMO pretreated; .circle., without DFMO.
Assays of cell growth were performed by plating 3×10^4 PC-3 cells in RPMI 1640 medium with 10% FCS and allowing them to attach overnight. The following morning the medium was replaced with incubation medium consisting of RPMI 1640, 10% FCS, 100 μM aminoguanidine, 100 units/ml of penicillin, 100 μg/ml of streptomycin, and 2 mM glutamine, with or without 1 mM difluoromethylornithine. Two days later the medium was aspirated and replaced with or without 1-(4-aminobutyl) aziridine at the designated concentration usually for 1 h or for the designated length of time. Following the 1-h incubation, the medium of all groups was aspirated and the dishes were rinsed with HBSS and replaced with fresh incubation medium. Either daily or 8 days following plating, the Petri dishes were rinsed with HBSS and the cells were lifted from the plate by trypsinization. The dishes were examined for completeness of cell removal by examination with an inverted microscope. The cells were counted with a Zeiss microscope using a hemocytometer. Tumor cell population doubling time was determined by ploting the natural logarithm (ln) of the number of cells versus the days following plating. The slope of this line was determined using the Memorial Sloan-Kettering Cancer Center Clin computer system statistical analysis package. Doubling time (DT) was determined as ln 2/slope=DT. Statistical differences in cell number between groups were determined by Student's t statistic with the aid of the Memorial Sloan-Kettering Cancer Center Clin computer using the statistics program.
^a Thirty thousand PC3 cells were plated in 60mm^2 Petri dishes i
RPMI 164010% FCS. The next day the medium was aspirated and replaced with
RPMI 164010% FCS medium with 100 μM aminoguanidine with or without 1 m
DFMO. Fortyeight h later the medium was aspirated. […]

[2] = test system: uptake of [14C]putrescine into PC-3 cells; assay type: cell-based, human; settings: PC-3 cells
Experimental: FIG. 1. Lineweaver-Burk plot of the uptake of [^14 C]putrescine by DFMO-pretreated cells. The ordinate is expressed as 1/pmol/15 min. The abscissa is expressed as 1 μM concentrations containing from 16 to 1.0 μM [^14 C]putrescine.
Fifty thousand PC-3 cells were plated in 12-well plates and 18 h later the incubation medium was removed and replaced with 1 ml or RPMI 1640 medium containing 25 mM 4-(2-hydroxyethyl)-1-piperazineethansulfonic acid buffer, 100 μM aminoguanidine, and 10% FCS. Forty-eight h later the medium was replaced with medium which contained [^14 C]putrescine in concentrations ranging from 16 to 1.0 μM with or without 5 1M 1-(4-aminobutyl) aziridine. Following incubation at 37° C. for 15 min the [^14 C]putrescine-containing medium was aspirated, and the cells were rinsed rapidly 4 times with HBSS. Following the last rinse, 1.0 ml of a solution of 0.1N NaOH was added and after a 2-h incubation at room temperature a 0.2-ml aliquot was added to 1 ml of 2% glacial acidic acid and 10 ml of Scintiverse 1 scintillation cocktail and the radioactive disintegrations were determined with a Packard Tri-Carb 300 scintillation spectrophotometer. Counting efficiency for ^14 C was 80%. Kinetic analysis of uptake was performed by graphic methods as described by Dixon and Webb, Enzymes, p. 322, New York Academic Press (1959).
In FIG. 1 a Lineweaver-Burk plot of the uptake of [^14 C]-putrescine into the PC-3 cells is presented and was used to determine the Km (intercept x axis) and Vmax (intercept y axis) for putrescine.

[3] = 2 h incubation, DFMO pretreated, day 8
[4] = 4 h incubation, DFMO pretreated, day 8

## NCCCCN1CC1 [AZP, 1-(4-aminobutyl) aziridine]
[1]; 1 h incubation, DFMO pretreated, day 8
  Cell number as a percentage of the control mean cell number: 73%
[1]; 1 h incubation, no DFMO (Control), day 8
  Cell no.: 236 ± 8 × 10^-4
[1]; [3]
  Cell number as a percentage of the control mean cell number: 52%
  Cell no.: 114 ± 10 × 10^-4
[1]; 2 h incubation, no DFMO (Control), day 8
  Cell no.: 202 ± 11 × 10^-4
[1]; [4]
  Cell number as a percentage of the control mean cell number: 32%
  Cell no.: 70 ± 8 × 10^-4
[1]; 8 h incubation, DFMO pretreated, day 8
  Cell number as a percentage of the control mean cell number: ~9%
[1]; 8 h incubation, no DFMO (Control), day 8
  Cell no.: 122 ± 16 × 10^-4
[1]; 24 h incubation, DFMO pretreated, day 8
  Cell number as a percentage of the control mean cell number: 0.9%
[1]; 24 h incubation, no DFMO (Control), day 8
  Cell no.: 30 ± 11 × 10^-4
[1]; DFMO-pretreated PC-3 (1 mM, 48 h), single agent 1 h (Put 100 μM or AZP 10 μM), day 8
  Cell no. as a percentage of control: 9%
[1]; read-out: Cell number as a percentage of the control mean cell number, 1 μM AZP, 1 h incubation, no DFMO (Control), day 8
  activity at 1 µM: 98%
[1]; read-out: Cell number as a percentage of the control mean cell number, 1 μM AZP, 2 h incubation, no DFMO (Control), day 8
  activity at 1 µM: 84%
[1]; read-out: Cell number as a percentage of the control mean cell number, 1 μM AZP, 4 h incubation, no DFMO (Control), day 8
  activity at 1 µM: 66%
[1]; read-out: Cell number as a percentage of the control mean cell number, 1 μM AZP, 8 h incubation, no DFMO (Control), day 8
  activity at 1 µM: 51%
[1]; read-out: Cell number as a percentage of the control mean cell number, 1 μM AZP, 24 h incubation, no DFMO (Control), day 8
  activity at 1 µM: ~12%
[1]; read-out: 50% effective dose (cell growth), PC-3, 1 h exposure, counted 8 days after plating, 1 mM DFMO pretreatment 48 h
  EC50: 2.1 µM
[1]; read-out: 50% effective dose (cell growth), PC-3, 1 h exposure, counted 8 days after plating, without DFMO
  EC50: 18 µM
[1]; PC-3, 3×10^4 plated, ±1 mM DFMO 48 h, ±25 μM AZP 1 h, mean±SD of triplicates
  Cells per dish on day 8 following plating: 123±10 ×10^4 cells per dish
[1]; PC-3, 25 μM AZP 1 h or 1 mM DFMO 48 h, mean±SE
  Doubling time: 1.53 ± 0.06 days
[1]; brief 1-h exposure
  Growth-inhibitory activity toward PC-3 cells (in words): definitely growth inhibitory
[2]
  Type of inhibition of putrescine uptake: consistent with competitive inhibition
[2]; with or without difluoromethylornithine pretreatment, 5 1M AZP, read-out: Apparent Ki for inhibition of putrescine uptake
  Ki: 1 µM
